How the values were obtained:
Type in all cases: functional
U-251 [1] = test: Cytotoxicity against human U251 cells by SRB assay; conditions: read-out: LC50 (the source's name)
SK-MEL-5 = test: Cytotoxicity against human SK-MEL-5 cells by SRB assay; conditions: read-out: LC50 (the source's name)
OVCAR-4 [2] = test: cells; conditions: Homo sapiens
Description: Growth inhibition of human OVCAR4 cells assessed as drug level required for 50% reduction in net protein increase by SRB assay relative to control

COLO 205 = test: cells; conditions: Homo sapiens
Description: Growth inhibition of human COLO205 cells assessed as cell growth at 10 uM by SRB assay

SR = test: cells; conditions: Homo sapiens
Description: Growth inhibition of human SR cells assessed as cell growth at 10 uM by SRB assay

HL-60(TB) = test: Cytotoxicity against human HL-60(TB) cells by SRB assay; conditions: read-out: LC50 (the source's name)
UACC-62 = test: Cytotoxicity against human UACC62 cells by SRB assay; conditions: read-out: LC50 (the source's name)
U-251 [3] = test: cells; conditions: Homo sapiens
Description: Growth inhibition of human U251 cells assessed as drug level required for 50% reduction in net protein increase by SRB assay relative to control

SW-620 = test: Cytotoxicity against human SW620 cells by SRB assay; conditions: read-out: LC50 (the source's name)
EKVX = test: Cytotoxicity against human EKVX cells by SRB assay; conditions: read-out: LC50 (the source's name)
HOP-92 = test: Cytotoxicity against human HOP92 cells by SRB assay; conditions: read-out: LC50 (the source's name)
HCT-15 = test: Cytotoxicity against human HCT15 cells by SRB assay; conditions: read-out: LC50 (the source's name)
NCI-H226 = test: Cytotoxicity against human NCI-H226 cells by SRB assay; conditions: read-out: LC50 (the source's name)
ACHN = test: Cytotoxicity against human ACHN cells by SRB assay; conditions: read-out: LC50 (the source's name)
HCT-116 = test: Cytotoxicity against human HCT116 cells by SRB assay; conditions: read-out: LC50 (the source's name)
SF-539 = test: Cytotoxicity against human SF539 cells by SRB assay; conditions: read-out: LC50 (the source's name)
NCI-H322M = test: Cytotoxicity against human NCI-H322M cells by SRB assay; conditions: read-out: LC50 (the source's name)
CCRF-CEM = test: Cytotoxicity against human CCRF-CEM cells by SRB assay; conditions: read-out: LC50 (the source's name)
OVCAR-4 [4] = test: cells; conditions: Homo sapiens; remark: listed apart in the source
Description: Growth inhibition of human OVCAR4 cells assessed as cell growth at 10 uM by SRB assay

UACC-257 = test: Cytotoxicity against human UACC257 cells by SRB assay; conditions: read-out: LC50 (the source's name)
NCI-H460 = test: cells; conditions: Homo sapiens
Description: Growth inhibition of human NCI-H460 cells assessed as cell growth at 10 uM by SRB assay

TK-10 = test: Cytotoxicity against human TK10 cells by SRB assay; conditions: read-out: LC50 (the source's name)
SK-OV-3 = test: cells; conditions: Homo sapiens
Description: Growth inhibition of human SKOV3 cells assessed as cell growth at 10 uM by SRB assay

OVCAR-8 = test: Cytotoxicity against human OVCAR8 cells by SRB assay; conditions: read-out: LC50 (the source's name)
DU-145 = test: cells; conditions: Homo sapiens
Description: Growth inhibition of human DU145 cells assessed as drug level required for 50% reduction in net protein increase by SRB assay relative to control

LOX IMVI = test: Cytotoxicity against human LOXIMVI cells by SRB assay; conditions: read-out: LC50 (the source's name)
RPMI-8226 = test: Cytotoxicity against human RPMI8226 cells by SRB assay; conditions: read-out: LC50 (the source's name)
NCI/ADR-RES = test: Cytotoxicity against human NCI/ADR-RES cells by SRB assay; conditions: read-out: LC50 (the source's name)
SK-MEL-2 = test: Cytotoxicity against human SK-MEL-2 cells by SRB assay; conditions: read-out: LC50 (the source's name)
MDA-MB-231 = test: Cytotoxicity against human MDA-MB-231 cells by SRB assay; conditions: read-out: LC50 (the source's name)
SNB-75 = test: cells; conditions: Homo sapiens
Description: Growth inhibition of human SNB75 cells assessed as cell growth at 10 uM by SRB assay

OVCAR-5 = test: Cytotoxicity against human OVCAR5 cells by SRB assay; conditions: read-out: LC50 (the source's name)
A498 = test: Cytotoxicity against human A498 cells by SRB assay; conditions: read-out: LC50 (the source's name)
SN12C = test: Cytotoxicity against human SN12C cells by SRB assay; conditions: read-out: LC50 (the source's name)
IGROV-1 = test: cells; conditions: Homo sapiens
Description: Growth inhibition of human IGROV1 cells assessed as cell growth at 10 uM by SRB assay

BT-549 = test: cells; conditions: Homo sapiens
Description: Growth inhibition of human BT549 cells assessed as cell growth at 10 uM by SRB assay

Compound	CC50 (U-251 [1])	CC50 (SK-MEL-5)	GI50 (OVCAR-4 [2])	growth at 10 µM (COLO 205)	growth at 10 µM (SR)	CC50 (HL-60(TB))	CC50 (UACC-62)	GI50 (U-251 [3])	CC50 (SW-620)	CC50 (EKVX)	CC50 (HOP-92)	CC50 (HCT-15)	CC50 (HCT-116)	growth at 10 µM (OVCAR-4 [4])	growth at 10 µM (NCI-H460)	growth at 10 µM (SK-OV-3)	CC50 (OVCAR-8)	GI50 (DU-145)	CC50 (SK-MEL-2)	growth at 10 µM (SNB-75)	also measured
CCCCCCCCCCCCCCCCCCPCCCCCCCCCCCCCC.O=S(=O)(NS(=O)(=O)C(F)(F)F)C(F)(F)F (stereo not drawn)	5.62 µM	0.829 µM	0.073 µM	-65.4%	62.4%	0.711 µM	> 100 µM	0.041 µM	> 100 µM	> 100 µM	> 100 µM	> 100 µM	> 100 µM	-91.8%	-59.4%	-3.34%	> 100 µM	0.156 µM	> 100 µM	-31.4%	CC50 (NCI-H226): > 100 µM; CC50 (ACHN): > 100 µM; CC50 (SF-539): > 100 µM; CC50 (NCI-H322M): > 100 µM; CC50 (CCRF-CEM): 8.46 µM; CC50 (UACC-257): > 100 µM; CC50 (TK-10): > 100 µM; CC50 (LOX IMVI): 0.592 µM; CC50 (RPMI-8226): 0.098 µM; CC50 (NCI/ADR-RES): > 100 µM; CC50 (MDA-MB-231): > 100 µM; CC50 (OVCAR-5): > 100 µM; CC50 (A498): > 100 µM; CC50 (SN12C): 4.44 µM
CCCCCCCC[N+](C)(CCCCCCCC)CCCCCCCC.O=S(=O)([N-]S(=O)(=O)C(F)(F)F)C(F)(F)F	4.32 µM	0.677 µM	0.309 µM	-60.6%	28.1%	1.23 µM	4.1 µM	0.334 µM	10 µM	4.31 µM	4.47 µM	5.23 µM	9.9 µM	-94.1%	-100%	-97.8%	5.88 µM	0.407 µM	> 100 µM	-100%	CC50 (NCI-H226): 4.41 µM; CC50 (ACHN): 4.52 µM; CC50 (SF-539): 4.19 µM; CC50 (NCI-H322M): 6.12 µM; CC50 (CCRF-CEM): 2.44 µM; CC50 (UACC-257): 6.16 µM; CC50 (TK-10): 4.86 µM; CC50 (LOX IMVI): 1.08 µM; CC50 (RPMI-8226): 0.951 µM; CC50 (NCI/ADR-RES): 8.13 µM; CC50 (MDA-MB-231): 3.63 µM; CC50 (OVCAR-5): 8.17 µM; CC50 (A498): 6.36 µM; CC50 (SN12C): 4.06 µM
CCCCCCCCCCCCCCCCCCPCCCCCCCCCCCCCC (stereo not drawn) [MONO(OCTADECYL(TETRADECYL)PHOSPHONIUM) MONO(HEXAFLUOROPHOSPHATE(V)) MONO(TETRAFLUOROBORATE)]			0.125 µM	-6.75%	12.1%			0.037 µM	> 100 µM				> 100 µM	-71.3%	-41.9%	-68.7%	> 100 µM	0.357 µM	> 100 µM	-85.2%	growth at 10 µM (IGROV-1): -19.6%; growth at 10 µM (BT-549): -83.5%

— ChEMBL document CHEMBL1153480, “Study on the potential anti-cancer activity of phosphonium and ammonium-based ionic liquids” (2009)
